# Laboratory results: patent US9845292B2 (Max-Planck-Gesellschaft zur Förderung der Wissenschaften …, priority 2013, dated 2017)
# Like-named read-outs stand apart in the source and are kept apart here.
# Assays:
# FKBP51 = target: T1, FKBP51 (Homo sapiens, UniProt Q13451); assay: Fluorescence polarization binding assay, FK1-domain of FKBP51WT with tracer F4; set-up: Purified FK1-domains of FKBP51WT (4.5 nM) with F4 (3 nM), FKBP52WT (400 nM) with F2 (20 nM); made in house; host or cells: E. coli BL21(DE3)pLysS; settings: read-out: Affinity(Ki) for FKBP51
# T1 sequence (Q13451 42-130 limits assumed): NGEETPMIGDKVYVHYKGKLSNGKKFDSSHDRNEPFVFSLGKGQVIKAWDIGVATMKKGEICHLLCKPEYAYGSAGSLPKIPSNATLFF
# Protocol: (§1) The target protein was also diluted in this assay buffer at double the highest concentration required for the final sample. This protein stock was used for a 1:1 serial dilution.
# (§2) The inventive compound was dissolved in DMSO to reach a 100-times concentrated stock solution. This was used for a 1:1 serial dilution in DMSO.
# (§3) For FKBP12, −51, and −52 the binding assays were performed in duplicates in the plate format.
# (§4) The competition curves were analyzed by using SigmaPlot9. Data were fitted to a four parameter logistic curve to deduce the IC50 values. […] A=(Amax−Amin)/[L]t×(([L]t×((2×((Klig+Kcomp+[L]t+[I]t−[R]t)^2−3×(Kcomp×([L]t−[R]t)+Klig×([I]t−[R]t)+Klig×Kcomp))^0.5×COS(ARCCOS((−2×(Klig+Kcomp+[L]t+[I]t−[R]t)^3+9×(Klig+Kcomp+[L]t+[I]t−[R]t)×(Kcomp×([L]t−[R]t)+Klig×([I]t−[R]t)+Klig×Kcomp)−27×(−1×Klig×Kcomp×[R]t))/(2×((((Klig+Kcomp+[L]t+[I]t−[R]t)^2−3×(Kcomp×([L]t−[R]t)+Klig×([I]t−[R]t)+Klig×Kcomp))^3)^0.5)))/3))−(Klig+Kcomp+[L]t+[I]t−[R]t)))/((3×Klig)+((2×((Klig+Kcomp+[L]t+[I]t−[R]t)^2−3×(Kcomp×([L]t−[R]t)+Klig×([I]t−[R]t)+Klig×Kcomp))^0.5×COS(ARCCOS((−2×(Klig+Kcomp+[L]t+[I]t−[R]t)^3+9×(Klig+Kcomp+[L]t+[I]t−[R]t)×(Kcomp×([L]t−[R]t)+Klig×([I]t−[R]t)+Klig×Kcomp)−27×(−1×Klig×Kcomp×[R]t))/(2×((((Klig+Kcomp+[L]t+[I]t−[R]t)^2−3×(Kcomp×([L]t−[R]t)+Klig×([I]t−[R]t)+Klig×Kcomp))^3)^0.5)))/3))−(Klig+Kcomp+[L]t+[I]t−[R]t))))+Amin
# (§5) In this equation Klig and Kcomp stand for the Kd values of the used tracer or competing inhibitor, [I]t is referring to the total concentration of the titrated inhibitor.
# (§6) Inhibition constants were measured in a fluorescence polarization binding assay by titrating the compounds.
# FKBP52 = target: T2, FKBP52 (Homo sapiens, UniProt Q02790); assay: Fluorescence polarization binding assay, FK1-domain of FKBP52WT with tracer F2 (selectivity FKBP51 vs. FKBP52); settings: selectivity factor over FKBP52
# T2 construct: Purified FK1-domains of FKBP51WT (4.5 nM) with F4 (3 nM), FKBP52WT (400 nM) with F2 (20 nM); implied by Ni-NTA purification) (N); made in house; host or cells: E. coli BL21(DE3)pLysS
# T2 sequence (Q02790 50-138 limits assumed): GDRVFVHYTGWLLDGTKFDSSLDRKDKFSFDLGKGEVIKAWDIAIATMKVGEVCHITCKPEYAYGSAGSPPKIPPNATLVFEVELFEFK
# Protocol: as §1, §2, §3, §4, §5
# The Selectivity of the Compounds was Classified by Ki(FKBP51)/Ki(FKBP52)
# as §6
# [1] = FK1-domain of FKBP51WT (4.5 nM) with F4 (3 nM), A series
# [2] = FKBP52WT (400 nM) with F2 (20 nM), A series
SMILES,Ki (FKBP51; compounds B01-C25) [nM],Ki(FKBP51)/Ki(FKBP52) (FKBP52; compounds B01-C25),Ki (FKBP51; [1]) [nM],Ki(FKBP51)/Ki(FKBP52) (FKBP52; [2])
"COc1cc([C@@H](C(=O)N2CCCC[C@H]2C(=O)OC2C=CCCC2)C2CCCCC2)cc(OC)c1OC (mixture of isomers) [Compound C15, (2S)-cyclohex-2-en-1-yl-1-((S)-2-cyclohexyl-2-(3,4,5-trimethoxyphenyl)acetyl) piperidine-2-carboxylate]",1000 to 10000,++ (>50 ++),,
"COc1ccc(CCC(OC(=O)C2CCCCN2C(=O)[C@H](c2cc(OC)c(OC)c(OC)c2)[C@@H]2C=CCCC2)c2cccc(OCCN3CCOCC3)c2)cc1OC (stereo in doubt) [Compound A12, (S)-(R)-3-(3,4-Dimethoxyphenyl)-1-(3-(2-morpholinoethoxy)phenyl)propyl-1-((S)-2-((S)-cyclohex-2-en-1-yl)-2-(3,4,5-trimethoxyphenyl)acetyl)piperidine-2-carboxylate]",,,< 100,+++ (>500 +++)
"COc1ccc(OCCOC(=O)[C@@H]2CCCCN2C(=O)[C@H](c2cc(OC)c(OC)c(OC)c2)C2C=CCCC2)cc1OC (stereo in doubt) [Compound A14, (S)-2-(3,4-Dimethoxyphenoxy)ethyl-1-((S)-2-((R)-cyclohex-2-en-1-yl)-2-(3,4,5-trimethoxyphenyl)acetyl)piperidine-2-carboxylate]",,,100 to 1000,++ (>50 ++)
"COc1ccc(CCC(OC(=O)C2CCCN2C(=O)[C@H](c2cc(OC)c(OC)c(OC)c2)C2C=CCCC2)c2cccc(OCCN3CCOCC3)c2)cc1OC (stereo in doubt) [Compound A15, (S)-(R)-3-(3,4-dimethoxyphenyl)-1-(3-(2-morpholinoethoxy)phenyl)propyl-1-((S)-2-((R)-cyclohex-2-en-1-yl)-2-(3,4,5-trimethoxyphenyl)acetyl)pyrrolidine-2-carboxylate]",,,< 100,+++ (>500 +++)
"CCC(C)OC(=O)C1CCCCN1C(=O)[C@H](c1cc(OC)c(OC)c(OC)c1)C1CCCCC1 (stereo in doubt) [Compound C08, (S)-(R)-sec-butyl-1-((S)-2-cyclohexyl-2-(3,4,5-trimethoxyphenyl)acetyl) piperidine-2-carboxylate]",1000 to 10000,++ (>50 ++),,
"C=CC[C@H](C(=O)N1CCCC1C(=O)OC(CCc1ccc(OC)c(OC)c1)c1cccc(OCCN2CCOCC2)c1)c1cc(OC)c(OC)c(OC)c1 (stereo in doubt) [Reference A33, (S)-(R)-3-(3,4-Dimethoxyphenyl)-1-(3-(2-morpholinoethoxy)phenyl)propyl-1-((S)-2-(3,4,5-trimethoxyphenyl)pent-4-enoyl)pyrrolidine-2-carboxylate]",,,,not selective (<5 not selective)
"C=CC[C@H](C(=O)N1CCCC[C@H]1C(=O)OC(CCCc1cccnc1)CCCc1cccnc1)c1cc(OC)c(OC)c(OC)c1 [Compound A04, (S)-1,7-di(pyridin-3-yl)heptan-4-yl 1-((S)-2-(3,4,5-trimethoxyphenyl)pent-4-enoyl)piperidine-2-carboxylate]",,,10000 to 50000,+ (>5 +)
"C=CC[C@H](C(=O)N1CCCC[C@H]1C(=O)N[C@H](CCc1ccc(OC)c(OC)c1)c1cccc(OCCN2CCOCC2)c1)c1cc(OC)c(OC)c(OC)c1 [Compound A05, (S)-N-((R)-3-(3,4-dimethoxyphenyl)-1-(3-(2-morpholinoethoxy)phenyl)propyl)-1-((S)-2-(3,4,5-trimethoxyphenyl)pent-4-enoyl)piperidine-2-carboxamide]",,,1000 to 10000,+ (>5 +)
C=CC[C@H](C(=O)N1CC=CC[C@H]1C(=O)O[C@H](CCc1ccc(OC)c(OC)c1)c1cccc(OCCN2CCOCC2)c1)c1cc(OC)c(OC)c(OC)c1 [Compound A06],,,10000 to 50000,+ (>5 +)
"COc1ccc(CC[C@@H](OC(=O)[C@@H]2CCCCN2C(=O)[C@@H](Cc2ccccc2)c2cc(OC)c(OC)c(OC)c2)c2cccc(OCC(=O)O)c2)cc1OC [Compound A10, 2-(3-((R)-3-(3,4-dimethoxyphenyl)-1-(((S)-1-((S)-3-phenyl-2-(3,4,5-trimethoxyphenyl)propanoyl)piperidine-2-carbonyl)oxy)propyl)phenoxy)acetic acid]",,,10000 to 50000,+ (>5 +)
"COc1ccc(CC[C@@H](OC(=O)[C@@H]2CCCCN2C(=O)[C@H](c2cc(OC)c(OC)c(OC)c2)[C@@H]2C=CCCC2)c2cccc(OCC(=O)O)c2)cc1OC [Compound A11, 2-(3-((R)-1-(((S)-1-((S)-2-((S)-Cyclohex-2-en-1-yl)-2-(3,4,5-trimethoxyphenyl)acetyl)piperidine-2-carbonyl)oxy)-3-(3,4-dimethoxyphenyl)propyl)phenoxy) acetic acid]",,,< 100,+++ (>500 +++)
"COc1cc([C@@H](C(=O)N2CCCC[C@H]2C(=O)OC(CCCc2cccnc2)CCCc2cccnc2)[C@@H]2C=CCCC2)cc(OC)c1OC [Compound A13, (S)-1,7-Di(pyridin-3-yl)heptan-4-yl-1-((S)-2-((S)-cyclohex-2-en-1-yl)-2-(3,4,5-trimethoxyphenyl)acetyl)piperidine-2-carboxylate]",,,< 100,+++ (>500 +++)
"COc1ccc(CCC(NC(=O)[C@@H]2CCCCN2C(=O)[C@H](c2cc(OC)c(OC)c(OC)c2)[C@@H]2C=CCCC2)c2cccc(OCC(=O)O)c2)cc1OC (stereo partly drawn) [Compound A16, 2-(3-((R)-1-((S)-1-((S)-2-((R)-Cyclohex-2-en-1-yl)-2-(3,4,5-trimethoxyphenyl)acetyl)piper-idine-2-carboxamido)-3-(3,4-dimethoxyphenyl)propyl)phenoxy) acetic acid]",,,100 to 1000,++ (>50 ++)
"COc1cc([C@@H](C(=O)N2CCCC[C@H]2C(=O)OC(CCCc2cccnc2)CCCc2cccnc2)C2CCCCC2)cc(OC)c1OC [Compound A19, (2S)-1,7-di(pyridin-3-yl)heptan-4-yl 1-(2-cyclohexyl-2-(3,4,5-trimethoxyphenyl)acetyl)piperidine-2-carboxylate]",,,< 100,+++ (>500 +++)
"COc1ccc(OCCOC(=O)[C@@H]2CCCCN2C(=O)[C@H](c2cc(OC)c(OC)c(OC)c2)C2CCCCC2)cc1OC [Compound A20, (S)-2-(3,4-dimethoxyphenoxy)ethyl-1-((S)-2-cyclohexyl-2-(3,4,5-trimethoxyphenyl)acetyl)piperidine-2-carboxylate]",,,100 to 1000,++ (>50 ++)
"COc1ccc(CC[C@@H](NC(=O)[C@@H]2CCCCN2C(=O)[C@H](c2cc(OC)c(OC)c(OC)c2)C2CCCCC2)c2cccc(OCC(=O)O)c2)cc1OC [Compound A22, 2-(3-((R)-1-((S)-1-((S)-2-cyclohexyl-2-(3,4,5-trimethoxyphenyl)acetyl)piperidine-2-carboxamido)-3-(3,4-dimethoxyphenyl)propyl)phenoxy)acetic acid]",,,100 to 1000,++ (>50 ++)
"C=CC[C@H](C(=O)N1CCSC[C@H]1C(=O)O[C@H](CCc1ccc(OC)c(OC)c1)c1cccc(OCCN2CCOCC2)c1)c1cc(OC)c(OC)c(OC)c1 [Reference A34, (R)-(R)-3-(3,4-Dimethoxyphenyl)-1-(3-(2-morpholinoethoxy)phenyl)propyl-4-((S)-2-(3,4,5-trimethoxyphenyl)pent-4-enoyl)thiomorpholine-3-carboxylate]",,,,not selective (<5 not selective)
